Source: ChEMBL document CHEMBL5625183, “Discovery of a novel dual-target inhibitor of CDK12 and PARP1 that induces synthetic lethality for treatment of triple-negative breast cancer” (Eur J Med Chem, 2023)
Activity calls are given as the source filed them. No cut-off for these calls is given here.

Experiments:
MDA-MB-436 [1] = test: Antiproliferative activity against human MDA-MB-436 cells transfected with CDK12 M816A and PARP1 G863A mutant incubated for 24 hrs by MTT assay; assay type: functional, cell-based
[2] = target: T1, Cyclin-dependent kinase 12 (Homo sapiens, UniProt Q9NYV4); test: Binding affinity to CDK12 in human MDA-MB-436 cells assessed as increase in protein thermal stabilization at 10 uM incubated for 6 hrs by CETSA based Western blot analysis; assay type: cell-based
MDA-MB-436 [3] = test: Upregulation of gamma-H2AX expression in human MDA-MB-436 cells incubated for 24 hrs by Western blot analysis; assay type: functional, cell-based; details: dose <= 20.0 µM
[4] = target: Cyclin-dependent kinase 2 (Homo sapiens, UniProt P24941); test: Inhibition of CDK2 (unknown origin) at 1 uM relative to control
[5] = target: Cyclin-dependent kinase 1 (Homo sapiens, UniProt P06493); test: Inhibition of CDK1 (unknown origin) at 1 uM relative to control
MDA-MB-231 [6] = test: Inhibition of cell migration in human MDA-MB-231 cells assessed as upregulation of E-cadherin level by measuring fluorescence intensity at 10 uM incubated for 24 hrs by confocal microscopic analysis; assay type: functional, cell-based
[7] = target: Poly [ADP-ribose] polymerase 2 (Homo sapiens, UniProt Q9UGN5); test: Inhibition of PARP2 (unknown origin) incubated for 1 hr by ELISA analysis
MDA-MB-231 [8] = test: Antitumor activity against human MDA-MB-231 cells xenografted in BALB/c mouse assessed as reduction in Ki67 expression at 20 to 80 mg/kg, ip administered once daily for 16 days by meyers hematoxylin staining based IHC analysis; assay type: functional, organism-based; details: dose 20-80 mg/kg, time 16.0 day
MDA-MB-436 [9] = test: Induction of cell cycle arrest in human MDA-MB-436 cells assessed as accumulation of cells at G2 phase at 5 uM measured after 24 hrs by PI staining based cytometry analysis (reference value: 2.54%); assay type: functional
[10] = Apparent volume of distribution in Sprague-Dawley rat at 1 mg/kg, iv measured upto 24 hrs by LC-MS/MS analysis; assay type: ADME, organism-based; details: in vivo, read-out: Vz
[11] = target: MAP kinase-activated protein kinase 2 (Homo sapiens) (UniProt P49137); test: Inhibition of MAPK2 (unknown origin) at 1 uM relative to control
[12] = Cmax in Sprague-Dawley rat at 10 mg/kg, po measured upto 24 hrs by LC-MS/MS analysis; assay type: ADME, organism-based; details: in vivo
MDA-MB-231 [13] = test: Induction of cell cycle arrest in human MDA-MB-231 cells assessed as accumulation of cells at G2 phase at 5 uM measured after 24 hrs by PI staining based cytometry analysis (reference value: 8.44 %); assay type: functional
MDA-MB-468 [14] = test: Antiproliferative activity against human MDA-MB-468 cells assessed as reduction in EDU-positive cells at 10 uM […]-staining based analysis; assay type: functional, cell-based
MDA-MB-436 [15] = test: Induction of cell cycle arrest in human MDA-MB-436 cells assessed as accumulation of cells at S phase at 20 uM measured after 24 hrs by PI staining based cytometry analysis (reference value: 25.43%); assay type: functional
[16] = AUC (0 to t) in Sprague-Dawley rat at 1 mg/kg, iv measured upto 24 hrs by LC-MS/MS analysis; assay type: ADME, organism-based; details: in vivo
MDA-MB-231 [17] = test: Induction of apoptosis in human MDA-MB-231 cells assessed as upregulation of Bax expression incubated for 24 hrs; assay type: functional, cell-based; details: dose 5-20 µM
[18] = Tmax in Sprague-Dawley rat at 10 mg/kg, po measured upto 24 hrs by LC-MS/MS analysis; assay type: ADME, organism-based; details: in vivo
[19] = target: T2, Dual specificity tyrosine-phosphorylation-regulated kinase 2 (Homo sapiens) (UniProt Q92630); test: Inhibition of DYRK2 (unknown origin) at 1 uM relative to control
T2 sequence (whole entry): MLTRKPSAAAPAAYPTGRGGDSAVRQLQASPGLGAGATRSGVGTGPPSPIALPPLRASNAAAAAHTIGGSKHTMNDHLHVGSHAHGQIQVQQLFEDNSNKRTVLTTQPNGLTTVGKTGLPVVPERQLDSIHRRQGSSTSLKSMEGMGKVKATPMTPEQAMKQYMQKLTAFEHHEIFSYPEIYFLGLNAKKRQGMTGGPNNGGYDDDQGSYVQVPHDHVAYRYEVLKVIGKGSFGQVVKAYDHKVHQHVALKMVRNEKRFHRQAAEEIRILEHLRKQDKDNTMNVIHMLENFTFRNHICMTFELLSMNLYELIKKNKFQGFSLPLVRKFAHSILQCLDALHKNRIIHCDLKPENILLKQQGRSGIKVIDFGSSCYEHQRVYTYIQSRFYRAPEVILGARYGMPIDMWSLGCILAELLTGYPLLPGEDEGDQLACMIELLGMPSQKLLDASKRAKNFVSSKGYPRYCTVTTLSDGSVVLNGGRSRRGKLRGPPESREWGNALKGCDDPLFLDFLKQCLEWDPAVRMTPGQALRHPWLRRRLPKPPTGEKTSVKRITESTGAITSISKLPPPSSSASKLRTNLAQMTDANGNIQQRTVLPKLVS

MDA-MB-468 [20] = test: Induction of apoptosis in human MDA-MB-468 cells assessed as upregulation of cleaved-caspase 3 expression incubated for 24 hrs; assay type: functional, cell-based; details: dose 5-20 µM
[21] = Toxicity in BALB/c mouse xenografted with human MDA-MB-231 cells assessed as morphological changes in liver at 20 to 80 mg/kg, ip administered once daily for 16 days by H and E staining based analysis; assay type: organism-based; details: in vivo, 384 h, dose 20-80 mg/kg, time 16 day
MDA-MB-231 [22] = test: Induction of cell cycle arrest in human MDA-MB-231 cells assessed as accumulation of cells at G1 phase at 5 uM measured after 24 hrs by PI staining based cytometry analysis (reference value: 68.55%); assay type: functional
MCF-10A = test: Cytotoxicity against human MCF-10A cells assessed reduction in cell viability incubated for 24 hrs by MTT assay; assay type: toxicity, cell-based
MDA-MB-436 [23] = test: Antiproliferative activity against human MDA-MB-436 cells transfected with wild type CDK12 and PARP1 G863A mutant incubated for 24 hrs by MTT assay; assay type: functional, cell-based
MDA-MB-231 [24] = test: Antiproliferative activity against human MDA-MB-231 cells assessed as reduction in EDU-positive cells at 10 uM […]-staining based analysis; assay type: functional, cell-based
[25] = MRT (0 to infinity) in Sprague-Dawley rat at 1 mg/kg, iv measured upto 24 hrs by LC-MS/MS analysis; assay type: ADME, organism-based; details: in vivo
MDA-MB-231 [26] = test: Induction of cell cycle arrest in human MDA-MB-231 cells assessed as accumulation of cells at S phase at 20 uM measured after 24 hrs by PI staining based cytometry analysis (reference value: 23.01 %); assay type: functional
[27] = target: T1, Cyclin-dependent kinase 12; test: Inhibition of CDK12 in human MDA-MB-436 cells assessed as effect on Pol II CTD at ser7 residue phosphorylation incubated for 24 hrs; assay type: cell-based; details: dose 5-20 µM
[28] = AUC (0 to t) in Sprague-Dawley rat at 10 mg/kg, po measured upto 24 hrs by LC-MS/MS analysis; assay type: ADME, organism-based; details: in vivo

T1 sequence (Q9NYV4 whole entry, looked up): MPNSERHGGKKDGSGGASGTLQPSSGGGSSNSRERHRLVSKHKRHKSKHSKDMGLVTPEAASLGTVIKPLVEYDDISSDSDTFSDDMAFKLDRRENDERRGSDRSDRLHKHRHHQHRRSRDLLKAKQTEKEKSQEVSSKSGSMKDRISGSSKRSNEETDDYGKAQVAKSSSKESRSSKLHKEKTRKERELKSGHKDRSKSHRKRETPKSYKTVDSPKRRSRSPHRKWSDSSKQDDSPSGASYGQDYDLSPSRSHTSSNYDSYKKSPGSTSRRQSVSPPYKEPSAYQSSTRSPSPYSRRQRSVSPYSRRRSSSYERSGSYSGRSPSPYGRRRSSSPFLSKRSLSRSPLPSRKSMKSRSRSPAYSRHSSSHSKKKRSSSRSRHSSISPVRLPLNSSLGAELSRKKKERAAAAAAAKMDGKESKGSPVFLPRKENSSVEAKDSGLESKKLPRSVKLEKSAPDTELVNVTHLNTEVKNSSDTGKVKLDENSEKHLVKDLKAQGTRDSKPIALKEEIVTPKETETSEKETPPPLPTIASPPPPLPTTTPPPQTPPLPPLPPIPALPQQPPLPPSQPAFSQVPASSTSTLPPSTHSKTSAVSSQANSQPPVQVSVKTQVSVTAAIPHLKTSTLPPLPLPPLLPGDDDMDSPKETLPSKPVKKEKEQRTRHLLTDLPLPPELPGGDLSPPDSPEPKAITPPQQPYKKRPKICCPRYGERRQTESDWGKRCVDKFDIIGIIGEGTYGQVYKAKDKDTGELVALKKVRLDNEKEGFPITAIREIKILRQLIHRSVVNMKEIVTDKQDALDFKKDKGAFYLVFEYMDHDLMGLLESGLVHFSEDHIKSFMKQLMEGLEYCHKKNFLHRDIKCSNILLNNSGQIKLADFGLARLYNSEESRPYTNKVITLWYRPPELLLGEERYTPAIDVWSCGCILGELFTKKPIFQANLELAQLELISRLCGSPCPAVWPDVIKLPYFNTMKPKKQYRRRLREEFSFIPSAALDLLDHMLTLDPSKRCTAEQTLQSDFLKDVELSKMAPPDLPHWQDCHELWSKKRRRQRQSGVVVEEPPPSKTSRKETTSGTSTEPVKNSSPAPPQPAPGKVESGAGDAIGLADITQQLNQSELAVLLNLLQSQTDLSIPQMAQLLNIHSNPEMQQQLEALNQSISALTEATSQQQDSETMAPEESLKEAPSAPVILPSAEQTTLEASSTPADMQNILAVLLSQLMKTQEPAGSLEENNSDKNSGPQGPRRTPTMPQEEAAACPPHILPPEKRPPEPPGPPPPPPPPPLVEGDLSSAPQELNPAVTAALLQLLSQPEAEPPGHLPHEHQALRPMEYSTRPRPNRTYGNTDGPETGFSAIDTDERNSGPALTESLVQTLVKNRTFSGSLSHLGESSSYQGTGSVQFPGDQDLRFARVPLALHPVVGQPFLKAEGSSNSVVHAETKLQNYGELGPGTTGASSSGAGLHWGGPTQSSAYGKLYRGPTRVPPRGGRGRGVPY
Chain of Poly [ADP-ribose] polymerase 2 (Q9UGN5 whole entry): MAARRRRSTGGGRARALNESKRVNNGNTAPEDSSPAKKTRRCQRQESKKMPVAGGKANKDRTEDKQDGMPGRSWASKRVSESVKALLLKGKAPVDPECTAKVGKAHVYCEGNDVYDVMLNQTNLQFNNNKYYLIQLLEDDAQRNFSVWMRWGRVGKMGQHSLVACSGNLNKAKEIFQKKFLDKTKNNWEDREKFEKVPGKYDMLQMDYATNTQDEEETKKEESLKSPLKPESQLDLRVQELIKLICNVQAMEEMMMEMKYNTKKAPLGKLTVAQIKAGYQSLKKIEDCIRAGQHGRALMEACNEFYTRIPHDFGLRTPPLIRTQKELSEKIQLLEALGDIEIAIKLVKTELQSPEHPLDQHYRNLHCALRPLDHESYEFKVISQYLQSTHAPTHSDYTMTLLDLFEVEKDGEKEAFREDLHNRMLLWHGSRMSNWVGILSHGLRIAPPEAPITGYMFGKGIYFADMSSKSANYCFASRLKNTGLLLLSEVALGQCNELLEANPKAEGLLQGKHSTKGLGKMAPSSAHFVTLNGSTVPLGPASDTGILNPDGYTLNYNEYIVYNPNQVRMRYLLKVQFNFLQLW
Chain of Cyclin-dependent kinase 1 (P06493 whole entry, looked up): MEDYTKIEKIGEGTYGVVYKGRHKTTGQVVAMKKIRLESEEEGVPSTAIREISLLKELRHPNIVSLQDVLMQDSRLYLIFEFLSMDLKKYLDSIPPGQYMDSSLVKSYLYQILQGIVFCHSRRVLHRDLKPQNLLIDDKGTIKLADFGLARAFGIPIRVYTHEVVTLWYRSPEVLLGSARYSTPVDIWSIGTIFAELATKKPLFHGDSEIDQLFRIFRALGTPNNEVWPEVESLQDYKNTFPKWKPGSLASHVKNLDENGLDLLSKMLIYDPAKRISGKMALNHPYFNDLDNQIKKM
Chain of MAP kinase-activated protein kinase 2 (Homo sapiens) (P49137 whole entry, looked up): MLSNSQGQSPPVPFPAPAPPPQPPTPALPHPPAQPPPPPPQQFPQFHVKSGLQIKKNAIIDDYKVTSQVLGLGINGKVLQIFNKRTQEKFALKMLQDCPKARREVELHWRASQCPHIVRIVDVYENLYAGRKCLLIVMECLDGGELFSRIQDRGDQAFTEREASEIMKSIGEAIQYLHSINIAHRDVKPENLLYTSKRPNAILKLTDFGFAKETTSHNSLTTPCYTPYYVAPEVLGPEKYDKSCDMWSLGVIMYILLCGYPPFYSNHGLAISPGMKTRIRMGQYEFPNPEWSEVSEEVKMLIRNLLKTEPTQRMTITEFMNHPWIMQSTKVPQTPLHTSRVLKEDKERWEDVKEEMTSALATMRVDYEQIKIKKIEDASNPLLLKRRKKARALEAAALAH

NC(=O)c1cccc2[nH]c(NC(=O)c3cccc(C(=O)N4CCC(Nc5ncc(I)cn5)CC4)c3)nc12
Activity (MDA-MB-436 [1]): Active
Activity [2]: Active
Activity (MDA-MB-436 [3]): Dose-Dependent Effect
inhibition [4]: > 60%
inhibition [5]: > 60%
inhibition (MDA-MB-231 [6]): Active
IC50 [7]: 30 nM
Activity (MDA-MB-231 [8]): Active
Activity (MDA-MB-436 [9]): 4.39%
Vd [10]: 3.22 L/kg
inhibition [11]: > 60%
Cmax [12]: 12.2 ng/mL
Activity (MDA-MB-231 [13]): 16.84%
Activity (MDA-MB-468 [14]): Active
Activity (MDA-MB-436 [15]): 21.2%
AUC(0-t) at 24 h [16]: 1250 ng·h/mL
Activity (MDA-MB-231 [17]): Dose-Dependent Effect
Tmax [18]: 1.58 h
inhibition [19]: > 60%
Activity (MDA-MB-468 [20]): Dose-Dependent Effect
Activity [21]: Non-Toxic
Activity (MDA-MB-231 [22]): 63.3%
Activity (MCF-10A): Non-Toxic
Activity (MDA-MB-436 [23]): Active
Activity (MDA-MB-231 [24]): Active
MRT inf [25]: 1.87 h
Activity (MDA-MB-231 [26]): 17.32%
inhibition [27]: Dose-Dependent Effect
AUC(0-t) at 24 h [28]: 60.6 ng·h/mL
